Test results reported in article PMC5625148, “Arginine‐rich membrane‐permeable peptides are seriously toxic” (Pharmacology Research & Perspectives, 2017).
Where a name gives a salt, the structure may show the parent alone.

Legend:
mice [1] = test: Acute toxicity study in mice after intravenous (tail vein) injection of MPPs or MPP-conjugates; format: in vivo, mice (Kunming species)
Procedure: A total of 390 mice (Kunming species, 22 ± 2 g, sex matched), were provided by the Experimental animal center of Academy of military medical sciences, China. The health condition of the mice was examined to confirm their suitability for use in the study. The animal rooms were monitored and maintained under a 12 h light‐dark cycle with temperature ranging from 20 to 25°C and a relative humidity of 40–60%. All the mice were allowed to acclimate to the laboratory environment for 2 days, housed by sex in groups of five per cage, provided with standard commercial diet and drinking water ad libitum. All the animal procedures performed in this study were reviewed and approved by the Animal Experimental Welfare and Ethical Inspection Committee of the Chinese Center for Disease Control and Prevention (Approval number IACUC#15‐026).
Firstly, a preliminary sequential toxicity testing was carried to find out the scope of the dosage. Then four dosages within this range were properly selected to carry on the LD50 estimation. The LD50 was calculated avoid the all or none survival groups of mice.
Five males and five females per group were stratified by weight and assigned randomly. The control mice and those in groups 1, 2, 3, 4 were intravenously injected with different doses of MPPs or MPP‐conjugates. The general behavior and signs of toxicity were monitored for 3 h after administration, and carried on once a day up to 14 days. The surviving mice were euthanized while those died from the poisoning were necropsied.
All the data are expressed as the means ± standard deviation (SD), and comparisons among the different groups were performed using an analysis of variance (ANOVA). The IBM statistical package for the social science (SPSS) statistics 20 software was used for all the analysis. The significance level was set at 5 and 1% (P < 0.05 and P < 0.01). The LD50 value was determined according to the Bliss method (Badisa et al. 2008).

mice [2] = details: converted from rat value; ref Saka et al. 2004; cited from earlier work
Description: (§1) The mechanism of the poisonous effects caused by TAT and CTP is not yet well understood. However, it is known that L‐arginine stimulates the release of insulin and causes necrotic pancreatitis with specific elevation of amylase in serum and urine. […] Thus, the higher mass ratio of arginine residues in the conjugate (Table 4) might be the best explanation of the toxicity.

rats = details: ref Saka et al. 2004; cited from earlier work
Description: as §1

[3] = iv, Bliss method, five males and five females per group, observed up to 14 days, Table 2

**Q.** With `NCCCC(=O)O` [GABA, γ‐aminobutyric acid] as the compound, how does the Toxicity in words (mice [1]; dose as high as 8000 mg kg^−1) read?
**A.** Its Toxicity in words is “not toxic at all”.

**Q.** And the “Survival rate (%)” value (mice [1]; iv, 8000 mg kg^−1)?
**A.** The value was 100%.

**Q.** With `O=C(O)C(F)(F)F` [TFA, Trifluoroacetic acid] as the compound, how does the “Toxicity in words (TFA control group)” value (mice [1]; 0.1% TFA solution) read?
**A.** The value was “did not manifest any toxicity”.

**Q.** What about the “Toxicity in words (TFA control group)” value (mice [1]; 0.5% TFA solution) of the same compound?
**A.** The value was “did not manifest any toxicity”.

**Q.** And the “Toxicity in words (TFA control group)” value (mice [1]; 1% TFA solution)?
**A.** Its value is “did not manifest any toxicity”.

**Q.** And the “Toxicity in words (TFA control group)” value (mice [1]; 2% TFA solution)?
**A.** Its value is “death appeared in a part of the mice”.

**Q.** Which results are given for `N=C(N)NCCC[C@H](N)C(=O)O` [arginine]?
**A.** LD50 of arginine, corresponding value in mice (mice [2]): 542 mg/kg; LD50 of arginine in rats (rats): 3793 mg/kg

**Q.** For ACSSSPSKHCG [TD], which “Survival rate (%)” value (mice [1]; iv, 140 mg kg^−1) is on record?
**A.** Its value is 100%.

**Q.** What about the LD50 (mice [1]; [3]) of the same compound?
**A.** The LD50 was over 140 mg/kg.

**Q.** What about the “Mortality (%)” value (mice [1]; iv, group 1, 80 mg kg^−1) of the same compound?
**A.** Its value is 0%.

**Q.** And the Mortality (mice [1]; iv, group 1, 80 mg kg^−1, dead/total)?
**A.** The Mortality was 0/2.

**Q.** What about the “Mortality (%)” value (mice [1]; iv, group 2, 100 mg kg^−1) of the same compound?
**A.** Its value is 0%.

**Q.** And the Mortality (mice [1]; iv, group 2, 100 mg kg^−1, dead/total)?
**A.** Its Mortality is 0/8.

**Q.** And the “Mortality (%)” value (mice [1]; iv, group 3, 140 mg kg^−1)?
**A.** Its value is 0%.

**Q.** And the Mortality (mice [1]; iv, group 3, 140 mg kg^−1, dead/total)?
**A.** Its Mortality is 0/8.

**Q.** And the LD50 (mice [1]; iv, rounded values of Table 4)?
**A.** The LD50 was over 140 mg/kg.

**Q.** And the “Survival and side effects in words” value (mice [1]; tail vein, 140 mg kg^−1)?
**A.** Its value is “all the mice well survived even without any side effect appeared”.

**Q.** Which LD50 (mice [1]; iv (tail vein), values in text) does the source give for “RRRRRRRRRRR [R11, undecapeptide composed purely of arginine residues, …]” here?
**A.** The LD50 was 16.5 mg/kg.

**Q.** What about the “Survival rate (%)” value (mice [1]; iv, 16.5 mg kg^−1) of the same compound?
**A.** Its value is 50%.

**Q.** And the LD50 (mice [1]; [3])?
**A.** Its LD50 is 16.508 mg/kg.

**Q.** What about the “Mortality (%)” value (mice [1]; iv, group 1, 15.5 mg kg^−1) of the same compound?
**A.** The value was 10%.

**Q.** And the Mortality (mice [1]; iv, group 1, 15.5 mg kg^−1, dead/total)?
**A.** Its Mortality is 1/10.

**Q.** What about the “Mortality (%)” value (mice [1]; iv, group 2, 16 mg kg^−1) of the same compound?
**A.** Its value is 30%.

**Q.** What about the Mortality (mice [1]; iv, group 2, 16 mg kg^−1, dead/total) of the same compound?
**A.** The Mortality was 3/10.

**Q.** What about the “Mortality (%)” value (mice [1]; iv, group 3, 16.5 mg kg^−1) of the same compound?
**A.** The value was 50%.

**Q.** What about the Mortality (mice [1]; iv, group 3, 16.5 mg kg^−1, dead/total) of the same compound?
**A.** The Mortality was 5/10.

**Q.** And the “Mortality (%)” value (mice [1]; iv, group 4, 17 mg kg^−1)?
**A.** Its value is 70%.

**Q.** And the Mortality (mice [1]; iv, group 4, 17 mg kg^−1, dead/total)?
**A.** The Mortality was 7/10.

**Q.** What about the LD50 (mice [1]; iv, rounded values of Table 4) of the same compound?
**A.** The LD50 was 16.5 mg/kg.

**Q.** For “YGRKKRRQRRR [TAT, arginine-rich membrane-permeable undecapeptide …]”, which LD50 (mice [1]; iv (tail vein), values in text) is on record?
**A.** Its LD50 is 27.244 mg/kg.

**Q.** And the “Survival rate (%)” value (mice [1]; iv, 27 mg kg^−1)?
**A.** The value was 50%.

**Q.** What about the LD50 (mice [1]; [3]) of the same compound?
**A.** Its LD50 is 27.244 mg/kg.

**Q.** And the “Mortality (%)” value (mice [1]; iv, group 1, 25 mg kg^−1)?
**A.** Its value is 22.2%.

**Q.** And the Mortality (mice [1]; iv, group 1, 25 mg kg^−1, dead/total)?
**A.** Its Mortality is 2/9.

**Q.** And the “Mortality (%)” value (mice [1]; iv, group 2, 27 mg kg^−1)?
**A.** The value was 44.4%.

**Q.** What about the Mortality (mice [1]; iv, group 2, 27 mg kg^−1, dead/total) of the same compound?
**A.** Its Mortality is 4/9.

**Q.** What about the “Mortality (%)” value (mice [1]; iv, group 3, 28 mg kg^−1) of the same compound?
**A.** Its value is 55.6%.

**Q.** What about the Mortality (mice [1]; iv, group 3, 28 mg kg^−1, dead/total) of the same compound?
**A.** Its Mortality is 5/9.

**Q.** What about the “Mortality (%)” value (mice [1]; iv, group 4, 30 mg kg^−1) of the same compound?
**A.** Its value is 87.5%.

**Q.** And the Mortality (mice [1]; iv, group 4, 30 mg kg^−1, dead/total)?
**A.** The Mortality was 7/8.

**Q.** And the LD50 (mice [1]; iv, rounded values of Table 4)?
**A.** Its LD50 is 27 mg/kg.

**Q.** Which LD50 (mice [1]; iv (tail vein), values in text) does the source give for “YGRRARRRRRR [CTP, arginine-rich membrane-permeable undecapeptide […]]” here?
**A.** Its LD50 is 21.345 mg/kg.

**Q.** And the “Survival rate (%)” value (mice [1]; iv, 21 mg kg^−1)?
**A.** Its value is 50%.

**Q.** And the LD50 (mice [1]; [3])?
**A.** The LD50 was 21.345 mg/kg.

**Q.** And the “Mortality (%)” value (mice [1]; iv, group 1, 19.5 mg kg^−1)?
**A.** Its value is 20%.

**Q.** And the Mortality (mice [1]; iv, group 1, 19.5 mg kg^−1, dead/total)?
**A.** The Mortality was 2/10.

**Q.** What about the “Mortality (%)” value (mice [1]; iv, group 2, 20 mg kg^−1) of the same compound?
**A.** The value was 30%.

**Q.** And the Mortality (mice [1]; iv, group 2, 20 mg kg^−1, dead/total)?
**A.** The Mortality was 3/10.

**Q.** What about the “Mortality (%)” value (mice [1]; iv, group 3, 20.5 mg kg^−1) of the same compound?
**A.** Its value is 36.4%.

**Q.** And the “Mortality (%)” value (mice [1]; iv, group 4, 22 mg kg^−1)?
**A.** Its value is 60%.

**Q.** And the Mortality (mice [1]; iv, group 4, 22 mg kg^−1, dead/total)?
**A.** The Mortality was 6/10.

**Q.** What about the LD50 (mice [1]; iv, rounded values of Table 4) of the same compound?
**A.** Its LD50 is 21 mg/kg.
